Measured values as given in patent publication US8779004B2, “Stable emulsion formulations” (Amgen, Inc., priority 2006, dated 2014).

Assay: Zeta potential titration of emulsions (droplet charge vs pH)
Format: physicochemical
Conditions: cinacalcet/1% EYP/10% SBO emulsion
Method: Panel A, titration results of 1% EYP/10% SBO in 1 mM dibasic phosphate. Panel B, titration results of cinacalcet/1% EYP/10% SBO in 1 mM dibasic phosphate. Other components of the emulsions include 10% soybean oil, 1% egg lecithin, 2.25% glycerin and water. Panel C, titration results for Compound A. Emulsion composition: SBO 10%, Lecithin 2% at pH 7. Concentration of Compound A was 5 mg/mL for formulation #1 and 1 mg/mL for formulation #2.
The zeta potential measurements were made on a Malvern Zetasizer 4 laser-scattering particle electrophoretic analyzer that measures the electrophoretic mobility and zeta potential distribution. Samples were prepared for the zeta potential titration by diluting the emulsion approximately 2500 fold in 1 mM dibasic phosphate pH 9 and titrating the solution with 100 mM phosphoric acid in 0.5 pH unit increments. […] Theoretically, the emulsions are stabilized by this charge, which prevents the droplets from coalescing. […] In contrast, the cinacalcet emulsions achieve charge neutrality in the range of pH 7-7.5.

## C[C@@H](NCCCc1cccc(C(F)(F)F)c1)c1cccc2ccccc12 [Cinacalcet, N-(1-(R)-(1-naphthyl)ethyl]-3-[3-(trifluoromethyl)phenyl]-1-aminopropane]
pH of about 9, 1 mM dibasic phosphate
  droplet charge of emulsion: net negative charge
Titration in 1 mM dibasic phosphate
  pH range in which emulsion achieves charge neutrality: 7-7.5
